Measured values published in patent publication US9187472B2 (AbbVie Inc., priority 2012, dated 2015).

Tests used:
NAMPT = NAMPT (Homo sapiens, UniProt P43490); assay: TR-FRET Binding Assay of NAMPT with PRPP; settings: with 200 μM PRPP and 2.5 mM ATP; 2 nM NAMPT, 2 nM probe, 16 hours equilibration
Method: Time-Resolved Fluorescence Resonance Energy Transfer (TR-FRET) Binding Assay of NAMPT with PRPP
Compound handling and data processing were identical to the assay in the absence of substrates (above). Final concentrations were 1× assay buffer, 2% DMSO, 2 nM NAMPT, 2 nM probe, 1 nM Tb-anti-His antibody (Invitrogen # PV5895), 200 μM PRPP and 2.5 mM ATP. Reactions were equilibrated for 16 hours prior to measurement to allow for potential enzymatic modification of test compounds.

PC3 cells = assay: NAMPT Cell Proliferation Assay; type: cell-based; settings: Homo sapiens, PC-3, 120 h, 5 days incubation, cell viability by Cell Titer Glo
Method in brief: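 Cell Titer Glo viability after 5-day exposure (37° C, 5% CO2); PC3, 500 cells/well, RPMI + 10% heat-inactivated FBS, overnight attachment before dosing. Dose range 10 μM to 1×10^−5 μM, 10-fold steps. IC50 = sigmoidal fit of % inhibition.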

[1] = target: NAMPT (human, recombinant, C-terminally His-tagged) (Homo sapiens, UniProt P43490); assay: Time-Resolved Fluorescence Resonance Energy Transfer (TR-FRET) Binding Assay of NAMPT; settings: without substrates; 6.8 nM NAMPT, 200 nM probe, 3 hours equilibration
NAMPT (human, recombinant, C-terminally His-tagged), sequence (P43490 whole entry): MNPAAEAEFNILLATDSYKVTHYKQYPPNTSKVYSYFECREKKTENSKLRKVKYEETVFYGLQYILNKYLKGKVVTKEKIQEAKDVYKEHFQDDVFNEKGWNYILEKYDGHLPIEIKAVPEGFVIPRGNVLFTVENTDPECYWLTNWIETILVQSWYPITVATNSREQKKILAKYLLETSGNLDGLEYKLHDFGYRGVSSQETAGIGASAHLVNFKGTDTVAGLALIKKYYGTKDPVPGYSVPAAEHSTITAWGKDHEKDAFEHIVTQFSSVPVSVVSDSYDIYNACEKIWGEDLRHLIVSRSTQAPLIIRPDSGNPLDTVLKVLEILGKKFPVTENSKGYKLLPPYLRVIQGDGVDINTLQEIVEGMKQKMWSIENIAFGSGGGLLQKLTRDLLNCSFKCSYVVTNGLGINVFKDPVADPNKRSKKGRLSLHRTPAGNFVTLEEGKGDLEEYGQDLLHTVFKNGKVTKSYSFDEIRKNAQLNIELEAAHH
Method: Determination of the utility of compounds having Formula (I) as binders to and inhibitors of NAMPT was performed using Time-Resolved Fluorescence Resonance Energy Transfer (TR-FRET) binding assays.
Time-Resolved Fluorescence Resonance Energy Transfer (TR-FRET) Binding Assay of NAMPT
Test compounds were serially diluted (typically 11 half log dilutions) in neat DMSO to 50× final concentrations prior to dilution with assay buffer (50 mM HEPES (NaOH), pH 7.5, 100 mM NaCl, 10 mM MgCl2, 1 mM DTT, 1% Glycerol) to 3× and 6% DMSO. Six μL were transferred to 384-well low-volume plates (Owens Corning #3673). To this, […] of a 1.5× solution containing enzyme, probe and antibody were added. Final concentrations in the 18 μL, reactions were 1× assay buffer, 2% DMSO, 6.8 nM NAMPT (human, recombinant, C-terminally His-tagged), 200 nM probe (a potent nicotinamide-competitive inhibitor conjugated to Oregon Green 488) and 1 nM Tb-anti-His antibody (Invitrogen # PV5895). Reactions were equilibrated at room temperature for 3 hours prior to reading on an Envision multi-label plate reader (Perkin Elmer; Ex=337 nm, Em=520 and 495 nm). Time-resolved FRET ratios (Em520/Em495) were normalized to controls, plotted as a function of compound concentration and fit with the four-parameter logistic equation to determine IC50s.

NAMPT, sequence (P43490 whole entry): as above

Structure (SMILES)	IC50 (NAMPT)	IC50 (PC3 cells)	IC50 [1]
CC(C)(C)OC(=O)N1CC=C(c2ccc(NC(=O)Nc3ccc4nccn4c3)cc2)CC1 [Example 25, tert-butyl 4-{4-[(imidazo[1,2-a]pyridin-6-ylcarbamoyl)amino]phenyl}-3,6-dihydropyridine-1(2H)-carboxylate]	0.714 nM	146 nM	508 nM
O=C(CC1CCOC1)Nc1ccc(NC(=O)Nc2ccc3nccn3c2)cc1 (stereo not drawn) [Example 26, N-{4-[(imidazo[1,2-a]pyridin-6-ylcarbamoyl)amino]phenyl}-2-(tetrahydrofuran-3-yl)acetamide]	1.1 nM	261 nM	211 nM
CC(=O)Nc1ccc(NC(=O)Nc2ccc3nccn3c2)cc1 [Example 27]	0.658 nM	7540 nM	756 nM
O=C(Nc1ccc(C2=CCN(C(=O)CC3CCOC3)CC2)cc1)Nc1ccc2nccn2c1 (stereo not drawn) [Example 28, 1-imidazo[1,2-a]pyridin-6-yl-3-{4-[1-(tetrahydrofuran-3-ylacetyl)-1,2,3,6-tetrahydropyridin-4-yl]phenyl}urea]	0.19 nM	14.2 nM	152 nM
CC(C)(O)C(=O)N1CC=C(c2ccc(NC(=O)Nc3ccc4nccn4c3)cc2)CC1 [Example 29, 1-{4-[1-(2-hydroxy-2-methylpropanoyl)-1,2,3,6-tetrahydropyridin-4-yl]phenyl}-3-imidazo[1,2-a]pyridin-6-ylurea]	0.236 nM	43.9 nM	168 nM
O=C(Nc1ccc(C2=CCN(C(=O)CN3CCOCC3)CC2)cc1)Nc1ccc2nccn2c1 [Example 30, 1-imidazo[1,2-a]pyridin-6-yl-3-{4-[1-(morpholin-4-ylacetyl)-1,2,3,6-tetrahydropyridin-4-yl]phenyl}urea]	0.785 nM	38.4 nM	1180 nM
CCOCC(=O)N1CC=C(c2ccc(NC(=O)Nc3ccc4nccn4c3)cc2)CC1 [Example 31, 1-{4-[1-(ethoxyacetyl)-1,2,3,6-tetrahydropyridin-4-yl]phenyl}-3-imidazo[1,2-a]pyridin-6-ylurea]	0.311 nM	107 nM	739 nM
COCCOCC(=O)N1CC=C(c2ccc(NC(=O)Nc3ccc4nccn4c3)cc2)CC1 [Example 32, 1-imidazo[1,2-a]pyridin-6-yl-3-(4-{1-[(2-methoxyethoxy)acetyl]-1,2,3,6-tetrahydropyridin-4-yl}phenyl)urea]	0.169 nM	284 nM	906 nM
O=C(Nc1ccc(C2=CCN(C(=O)C3CCCO3)CC2)cc1)Nc1ccc2nccn2c1 (stereo not drawn) [Example 33, 1-imidazo[1,2-a]pyridin-6-yl-3-{4-[1-(tetrahydrofuran-2-ylcarbonyl)-1,2,3,6-tetrahydropyridin-4-yl]phenyl}urea]	0.553 nM	67.3 nM	369 nM
O=C(Nc1ccc(C2=CCN(C(=O)C3CCOCC3)CC2)cc1)Nc1ccc2nccn2c1 [Example 34, 1-imidazo[1,2-a]pyridin-6-yl-3-{4-[1-(tetrahydro-2H-pyran-4-ylcarbonyl)-1,2,3,6-tetrahydropyridin-4-yl]phenyl}urea]	0.377 nM	38.3 nM	208 nM
O=C(Nc1ccc(C2=CCN(C(=O)C3COCCO3)CC2)cc1)Nc1ccc2nccn2c1 (stereo not drawn) [Example 35, 1-{4-[1-(1,4-dioxan-2-ylcarbonyl)-1,2,3,6-tetrahydropyridin-4-yl]phenyl}-3-imidazo[1,2-a]pyridin-6-ylurea]	0.801 nM	58.6 nM	387 nM
CN1CCC(C(=O)N2CC=C(c3ccc(NC(=O)Nc4ccc5nccn5c4)cc3)CC2)CC1 [Example 36, 1-imidazo[1,2-a]pyridin-6-yl-3-(4-{1-[(1-methylpiperidin-4-yl)carbonyl]-1,2,3,6-tetrahydropyridin-4-yl}phenyl)urea]	0.444 nM	51.4 nM	356 nM
O=C(Nc1ccc(C2=CCN(C(=O)C3CCS(=O)(=O)CC3)CC2)cc1)Nc1ccc2nccn2c1 [Example 37, 1-(4-{1-[(1,1-dioxidotetrahydro-2H-thiopyran-4-yl)carbonyl]-1,2,3,6-tetrahydropyridin-4-yl}phenyl)-3-imidazo[1,2-a]pyridin-6-ylurea]	0.309 nM	34.7 nM	129 nM
CC(C)C(=O)N1CC=C(c2ccc(NC(=O)Nc3ccc4nccn4c3)cc2)CC1 [Example 38, 1-imidazo[1,2-a]pyridin-6-yl-3-{4-[1-(2-methylpropanoyl)-1,2,3,6-tetrahydropyridin-4-yl]phenyl}urea]	0.266 nM	65.9 nM	243 nM
CCOCC(=O)Nc1ccc(NC(=O)Nc2ccc3nccn3c2)cc1 [Example 39, 2-ethoxy-N-{4-[(imidazo[1,2-a]pyridin-6-ylcarbamoyl)amino]phenyl}acetamide]	0.26 nM	7280 nM	814 nM
O=C(CC1CCOCC1)Nc1ccc(NC(=O)Nc2ccc3nccn3c2)cc1 [Example 40]	0.217 nM	70.8 nM	40.9 nM
O=C(CN1CCOCC1)Nc1ccc(NC(=O)Nc2ccc3nccn3c2)cc1 [Example 41]	1.15 nM	138 nM	294 nM
COCCOCC(=O)Nc1ccc(NC(=O)Nc2ccc3nccn3c2)cc1 [Example 42, N-{4-[(imidazo[1,2-a]pyridin-6-ylcarbamoyl)amino]phenyl}-2-(2-methoxyethoxy)acetamide]	0.381 nM	1590 nM	697 nM
COCC(C)C(=O)Nc1ccc(NC(=O)Nc2ccc3nccn3c2)cc1 (stereo not drawn) [Example 43]	0.169 nM	7450 nM	4350 nM
CCCC(=O)Nc1ccc(NC(=O)Nc2ccc3nccn3c2)cc1 [Example 44]	0.496 nM	1580 nM	396 nM
O=C(CCC(F)(F)F)Nc1ccc(NC(=O)Nc2ccc3nccn3c2)cc1 [Example 45, 4,4,4-trifluoro-N-{4-[(imidazo[1,2-a]pyridin-6-ylcarbamoyl)amino]phenyl}butanamide]	1.19 nM	2070 nM	879 nM
O=C(Nc1ccc(NC(=O)C2CCOCC2)cc1)Nc1ccc2nccn2c1 [Example 46]	0.318 nM	6280 nM	773 nM
CC(C)CCC(=O)Nc1ccc(NC(=O)Nc2ccc3nccn3c2)cc1 [Example 47, N-{4-[(imidazo[1,2-a]pyridin-6-ylcarbamoyl)amino]phenyl}-4-methylpentanamide]	0.62 nM	64.8 nM	57.5 nM
CN1CCC(C(=O)Nc2ccc(NC(=O)Nc3ccc4nccn4c3)cc2)CC1 [Example 48]	0.169 nM	5320 nM	> 10000 nM
O=C(Nc1ccc(NC(=O)C2CCS(=O)(=O)CC2)cc1)Nc1ccc2nccn2c1 [Example 49]	0.317 nM	7040 nM	442 nM
O=C(Nc1ccc(NC(=O)C2COCCO2)cc1)Nc1ccc2nccn2c1 (stereo not drawn) [Example 50]	0.817 nM	6140 nM	1640 nM
CC(C)Cn1cc(-c2ccc(NC(=O)Nc3ccc4nccn4c3)cc2)cn1 [Example 51, 1-imidazo[1,2-a]pyridin-6-yl-3-{4-[1-(2-methylpropyl)-1H-pyrazol-4-yl]phenyl}urea]	0.524 nM	83 nM	264 nM
O=C(CC1CCCC1)Nc1ccc(C(=O)NCc2ccc3nccn3c2)cc1 [Example 52, 4-[(cyclopentylacetyl)amino]-N-(imidazo[1,2-a]pyridin-6-ylmethyl)benzamide]	5.79 nM	4.07 nM	18.6 nM
CC(C)CC(=O)N(Cc1ccc(C#N)cc1)c1ncc(C(=O)Nc2ccc3nccn3c2)s1 [Example 53, 2-[(4-cyanobenzyl)(3-methylbutanoyl)amino]-N-(imidazo[1,2-a]pyridin-6-yl)-1,3-thiazole-5-carboxamide]	14.4 nM	3300 nM	4450 nM
COCCC(=O)N(Cc1ccc(C#N)cc1)c1ncc(C(=O)Nc2ccc3nccn3c2)s1 [Example 54, 2-[(4-cyanobenzyl)(3-methoxypropanoyl)amino]-N-(imidazo[1,2-a]pyridin-6-yl)-1,3-thiazole-5-carboxamide]	2.55 nM	303 nM	363 nM
